For experiment [1], the target named is human recombinant histamine H1 receptor (Homo sapiens, UniProt P35367). Description: Histamine H1 radioligand binding assay. The settings on record: [3H]Pyrilamine specific binding; for inhibition at 1 µM: read-out: Percentage Inhibition, Histamine Binding (1 μM) H1. On the procedure:
To evaluate in radioligand binding assays the activity of compounds of the invention, human recombinant histamine H1 receptor expressed in Chinese hamster ovary (CHO) cells [De Backer, M. D. et al., Biochem. Biophys. Res. Comm. (1993), 197(3):1601] in a modified Tris-HCl buffer (50 mM Tris-HCl, pH 7.4, 2 mM MgCl2, 100 mM NaCl, 250 mM Sucrose) was used. Compounds of the invention were incubated with 1.2 nM [^3H]Pyrilamine for 180 min. at 25° C. Non-specific binding was estimated in the presence of 1 μM pyrilamine. Receptor proteins were filtered and washed, the filters were then counted to determine [^3H]Pyrilamine specifically bound. Compounds were screened at 1 μM or lower, using 1% DMSO as vehicle. Biochemical assay results are presented as the percent inhibition of specific binding in Table 2.

In experiment [2] the target is T1, human recombinant adrenergic α2A receptor (Homo sapiens, UniProt P08913).
T1 construct: expressed in transfected cells; host or cells: insect Sf9 cells
T1 sequence (P08913 1-465): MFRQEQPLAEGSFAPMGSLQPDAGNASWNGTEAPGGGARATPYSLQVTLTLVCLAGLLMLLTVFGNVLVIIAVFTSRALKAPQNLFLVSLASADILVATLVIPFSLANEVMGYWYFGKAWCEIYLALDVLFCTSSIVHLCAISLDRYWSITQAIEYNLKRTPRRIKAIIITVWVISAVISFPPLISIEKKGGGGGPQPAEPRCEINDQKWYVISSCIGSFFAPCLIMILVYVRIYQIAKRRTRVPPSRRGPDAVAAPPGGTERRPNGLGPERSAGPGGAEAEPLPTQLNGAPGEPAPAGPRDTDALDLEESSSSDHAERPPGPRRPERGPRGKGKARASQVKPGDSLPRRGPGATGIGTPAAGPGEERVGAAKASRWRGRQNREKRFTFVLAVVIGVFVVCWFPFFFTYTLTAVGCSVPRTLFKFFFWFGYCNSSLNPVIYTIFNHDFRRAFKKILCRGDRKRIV
The experiment is described as follows: Adrenergic α2A radioligand binding assay. The settings on record: [3H]MK-912 specific binding; for inhibition at 1 µM: read-out: Percent Inhibition of ligand binding, Adrenergic (1 μM ligand conc.) α2A; for inhibition at 0.1 µM: read-out: Percent Inhibition of ligand binding, Adrenergic (0.1 μM ligand conc.) α2A. On the procedure:
To evaluate in radioligand binding assays the activity of compounds of the invention, human recombinant adrenergic α2A receptor expressed in insect Sf9 cells [Uhlen, S et al. J. Pharmacol. Exp. Ther. (1994), 271:1558] in a modified Tris-HCl buffer (50 mM Tris-HCl, pH 7.4, 12.5 mM MgCl2, 2 mM EDTA) was used. Compounds of invention were incubated with 1 nM [^3H]MK-912 for 60 min. at 25° C. MK912 was (2S-trans)-1,3,4,5′,6,6′,7,12b-octahydro-1′,3′-dimethyl-spiro[2H-benzofuro[2,3-a]quinolizine-2,4′(1′H)-pyrimidin]-2′(3′H)-one hydrochloride Non-specific binding was estimated in the presence of 10 μM WB-4101 (2-(2,6-dimethoxyphenoxyethyl)aminomethyl-1,4-benzodioxane hydrochloride). Receptor proteins were filtered and washed, the filters were then counted to determine [^3H]MK-912 specifically bound. Compounds were screened at 1 μM or lower, using 1% DMSO as vehicle. Compounds of the invention were tested in this biochemical assay. Biochemical assay results for representative compounds were presented as the percent inhibition of specific binding in Table 3.

In experiment [3] the target is T2, human recombinant serotonin (5-Hydroxytryptamine) 5-HT2A receptor (Homo sapiens, UniProt P28223).
T2 construct: expressed in transfected cells; host or cells: Chinese hamster ovary (CHO-K1) cells
The experiment is described as follows: Serotonin 5-HT2A radioligand binding assay. The settings on record: [3H]Ketanserin specific binding; for inhibition at 1 µM: read-out: Percent Inhibition of ligand binding, Serotonin (1 μM ligand concentration) 5-HT2A. As to the method: To evaluate in radioligand binding assays the activity of compounds of the invention, human recombinant serotonin (5-Hydroxytryptamine) 5-HT2A receptor expressed in Chinese hamster ovary (CHO-K1) cells [Bonhaus, D. W. et al., Br. J. Pharmacol. (1995), 115:622; Saucier, C. et al., J. Neurochem. (1997), 68:1998] in a 50 mM Tris-HCl buffer, pH 7.4, was used. Compounds of the invention were incubated with 0.5 nM [^3H]Ketanserin for 60 min. at 25° C. Non-specific binding was estimated in the presence of 1 μM Mianserin. Receptor proteins were filtered and washed, the filters were then counted to determine [^3H]Ketanserin specifically bound. Compounds were screened at 1 μM or lower, using 1% DMSO as vehicle. Biochemical assay results are presented as the percent inhibition of specific binding in Table 4.

In experiment [4] the target is T3, human recombinant serotonin (5-Hydroxytryptamine) 5-HT6 receptor (Homo sapiens, UniProt P50406).
T3 construct: expressed in transfected cells; host or cells: human HeLa cells
The experiment is described as follows: Serotonin 5-HT6 radioligand binding assay. The settings on record: [3H]LSD specific binding; for inhibition at 1 µM: read-out: Percent Inhibition of ligand binding, Serotonin (1 μM ligand concentration) 5-HT6. As to the method:
To evaluate in radioligand binding assays the activity of compounds of the invention, human recombinant serotonin (5-Hydroxytryptamine) 5-HT6 receptor expressed in human HeLa cells [Monsma, F. J. Jr et al., Mol. Pharmacol. (1993), 43:320] in a modified Tris-HCl buffer (50 mM Tris-HCl, pH 7.4, 150 mM NaCl, 2 mM Ascorbic Acid, 0.001% BSA) was used. Compounds of the invention were incubated with 1.5 nM [3H]Lysergic acid diethylamide (LSD) for 120 min. at 37° C. Non-specific binding was estimated in the presence of 5 μM Serotonin (5-HT). Receptor proteins were filtered and washed, the filters were then counted to determine[3H]LSD specifically bound. Compounds were screened at 1 μM or lower, using 1% DMSO as vehicle. Biochemical assay results are presented as the percent inhibition of specific binding in Table 4.

The values that follow come from patent publication US9271971B2, “Pyrido[3,4-B]indoles and methods of use” (Medivation Technologies, Inc., priority 2009, dated 2016).

human recombinant histamine H1 receptor, sequence (P35367 whole entry): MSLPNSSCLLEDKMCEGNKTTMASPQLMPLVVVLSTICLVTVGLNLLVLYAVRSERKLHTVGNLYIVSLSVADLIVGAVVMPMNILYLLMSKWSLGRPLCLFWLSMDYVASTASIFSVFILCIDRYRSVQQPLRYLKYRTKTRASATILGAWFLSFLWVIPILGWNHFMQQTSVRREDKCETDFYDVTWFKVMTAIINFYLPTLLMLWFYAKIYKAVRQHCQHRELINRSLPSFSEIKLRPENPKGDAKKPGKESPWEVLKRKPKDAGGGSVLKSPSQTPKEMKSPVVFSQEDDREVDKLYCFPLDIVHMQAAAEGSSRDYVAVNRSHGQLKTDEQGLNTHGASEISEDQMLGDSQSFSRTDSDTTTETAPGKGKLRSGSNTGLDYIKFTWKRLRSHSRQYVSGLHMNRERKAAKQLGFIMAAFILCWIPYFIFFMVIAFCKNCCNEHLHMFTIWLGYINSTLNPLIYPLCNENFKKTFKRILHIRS
T3 sequence (P50406 whole entry): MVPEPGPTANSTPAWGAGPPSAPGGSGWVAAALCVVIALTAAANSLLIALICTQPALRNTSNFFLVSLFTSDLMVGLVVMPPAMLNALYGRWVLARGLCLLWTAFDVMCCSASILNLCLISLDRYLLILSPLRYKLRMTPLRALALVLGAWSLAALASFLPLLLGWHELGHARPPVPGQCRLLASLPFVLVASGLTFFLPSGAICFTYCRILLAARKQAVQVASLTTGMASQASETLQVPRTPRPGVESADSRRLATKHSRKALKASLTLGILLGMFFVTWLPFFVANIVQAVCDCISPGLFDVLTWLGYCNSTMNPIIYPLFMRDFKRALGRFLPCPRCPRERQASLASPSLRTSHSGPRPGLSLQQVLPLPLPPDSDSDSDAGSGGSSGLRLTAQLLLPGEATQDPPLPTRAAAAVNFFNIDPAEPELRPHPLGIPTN
T2 sequence (P28223 whole entry): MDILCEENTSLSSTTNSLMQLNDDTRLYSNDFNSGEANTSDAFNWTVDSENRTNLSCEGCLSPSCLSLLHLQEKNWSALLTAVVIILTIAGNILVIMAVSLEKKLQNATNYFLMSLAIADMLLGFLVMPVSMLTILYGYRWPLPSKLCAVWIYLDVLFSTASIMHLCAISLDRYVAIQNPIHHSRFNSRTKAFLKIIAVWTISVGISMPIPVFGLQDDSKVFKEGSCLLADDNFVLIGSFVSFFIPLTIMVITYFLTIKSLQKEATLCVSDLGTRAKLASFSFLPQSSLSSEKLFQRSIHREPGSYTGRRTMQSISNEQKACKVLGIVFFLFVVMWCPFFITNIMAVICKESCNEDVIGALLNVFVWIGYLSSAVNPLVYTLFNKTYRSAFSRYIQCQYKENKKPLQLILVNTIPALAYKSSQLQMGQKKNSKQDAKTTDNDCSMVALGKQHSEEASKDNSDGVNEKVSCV

In the case of `Cc1ccc2c(c1)c1c(n2CC(C)(O)c2ccc(F)c(Cl)c2)CN2CCC1C2` (stereo not drawn) [Compound 18], the inhibition at 1 µM in experiment [1] is 21%; in experiment [2] (1 μM), 30%; in experiment [3], 81%; in experiment [4] it was 49%.
Consider `Cc1ccc2c(c1)c1c(n2CCc2nc(-c3ccccc3)cs2)CN2CCC1C2` (stereo not drawn) [Compound 19], for which the inhibition at 1 µM in experiment [1] was 82%; in experiment [2] (1 μM) it was -10%; in experiment [3], 0%; in experiment [4] it was 9%.
In the case of `Cc1ccc(C(C)(O)Cn2c3c(c4cc(C)ccc42)C2CCN(C3)C2)cc1` (stereo not drawn) [Compound 20], the inhibition at 1 µM came out at 21% in experiment [1], 28% in experiment [2] (1 μM), 102% in experiment [3] and 13% in experiment [4].
In the case of `Cc1ccc2c(c1)c1c(n2CC(=O)c2ccccc2)CN2CCC1C2` (stereo not drawn) [Compound 21], the inhibition at 1 µM was 40% in experiment [1], 5% in experiment [2] (1 μM), 16% in experiment [3] and 29% in experiment [4].
Regarding `C/C(=C\n1c2c(c3cc(C)ccc31)C1CCN(C2)C1)c1ccc(F)cc1` (stereo not drawn) [Compound 22], the “Percentage Inhibition, Histamine Binding (1 μM) H1” value (“Percentage Inhibition” below) in experiment [1] was found to be 58%. Moreover, the inhibition at 1 µM in experiment [1] was determined as 52%; in experiment [2] (1 μM), 93%; in experiment [3], 97%; in experiment [4], 102%.
As for `Cc1ccc2c(c1)c1c(n2CC(=O)NC2CCCCC2)CN2CCC1C2` (stereo not drawn) [Compound 23], the inhibition at 1 µM in experiment [1] was 13%; in experiment [2] (1 μM) it was -13%; in experiment [3], -4%; in experiment [4] it was 4%.
As for `Cc1ccc2c(c1)c1c(n2CC(=O)N2CCNCC2)CN2CCC1C2` (stereo not drawn) [Compound 24], the inhibition at 1 µM in experiment [1] is 5%; in experiment [2] (1 μM), 4%; in experiment [3] it was 3%; in experiment [4], 5%.
On to `Cc1ccc2c(c1)c1c(n2CC(=O)N2CCC(C)CC2)CN2CCC1C2` (stereo not drawn) [Compound 25], for which the inhibition at 1 µM in experiment [1] is 30%; in experiment [2] (1 μM), -7%; in experiment [3], 2%; in experiment [4] it was -2%.
Taken in the same sequence, the figures for `Cc1ccc2c(c1)c1c(n2CC(=O)N2CCOCC2)CN2CCC1C2` (stereo not drawn) [Compound 26] were 17%, -4%, 5% and 4%.
Regarding `Cc1ccc2c(c1)c1c(n2CC(=O)N(C)C)CN2CCC1C2` (stereo not drawn) [Compound 27], the inhibition at 1 µM in experiment [1] is 10%; in experiment [2] (1 μM), 5%; in experiment [3] it was -4%; in experiment [4] it was 5%.
With `Cc1ccc2c(c1)c1c(n2CC(=O)c2ccc(F)cc2)CN2CCC1C2` (stereo not drawn) [Compound 28], the inhibition at 1 µM in experiment [1] stood at 64%; in experiment [2] (1 μM) it was 86%; in experiment [3] it was 61%; in experiment [4], 15%.
For `Cc1ccc2c(c1)c1c(n2CC(=O)c2ccc(Cl)cc2)CN2CCC1C2` (stereo not drawn) [Compound 29], in that order: 56%, 89%, 56% and 32%.
Taken in the same sequence, the figures for `Cc1ccc2c(c1)c1c(n2CCc2ccncc2)CN2CCC1C2` (stereo not drawn) [Compound 30] were 76%, 84%, 71% and 33%.
For `Cc1ccc2c(c1)c1c(n2CC(O)c2ccc(F)cc2)CN2CCC1C2` (stereo not drawn) [Compound 31], in that order: 42%, 41%, 58% and 46%.
For `C/C(=C\n1c2c(c3cc(C)ccc31)C1CCN(C2)C1)c1ccc(Cl)cc1` (stereo not drawn) [Compound 32], the inhibition at 1 µM in experiment [1] came out at 85%; in experiment [2] (1 μM) it was 96%; in experiment [3], 86%; in experiment [4], 97%. Besides, the inhibition at 0.1 µM in experiment [2] is 45%.
Take `C/C(=C\n1c2c(c3cc(C)ccc31)C1CCN(C2)C1)c1ccc(Cl)cc1Cl` (stereo not drawn) [Compound 33]: in experiment [1], the “Percentage Inhibition” value was found to be 76%. In addition, the inhibition at 0.1 µM in experiment [2] was 13%. The inhibition at 1 µM in experiment [2] (1 μM) came to 66%; in experiment [3], 78%; in experiment [4], 35%.
On to `C/C(=C\n1c2c(c3cc(C)ccc31)C1CCN(C2)C1)c1ccc(Cl)cc1Cl` (stereo not drawn) [Compound 34], for which, in experiment [1], the “Percentage Inhibition” value is 34%. Besides, in experiment [2] (1 μM), the “Percent Inhibition of ligand binding, Adrenergic (1 μM ligand conc.) α2A” value was 48%. In addition, the “Percent Inhibition of ligand binding, Serotonin (1 μM ligand concentration) 5-HT2A” value in experiment [3] is reported as 94%. Also, the “Percent Inhibition of ligand binding, Serotonin (1 μM ligand concentration) 5-HT6” value in experiment [4] came out at 21%.
In the case of `Cc1ccc2c(c1)c1c(n2C(=O)Cc2ccc(Cl)cc2)CN2CCC1C2` (stereo not drawn) [Compound 36], the inhibition at 1 µM in experiment [1] worked out at 45%; in experiment [3], 89%; in experiment [4], 38%. Moreover, in experiment [2], the inhibition at 0.1 µM was 24%.
Taken in the same sequence, the figures for `C/C(=C\n1c2c(c3cc(C)ccc31)C1CCN(C2)C1)c1ccccc1F` (stereo not drawn) [Compound 38] were 38%, 90%, 58% and 3%.
For `C/C(=C\n1c2c(c3cc(C)ccc31)C1CCN(C2)C1)c1ccncc1` (stereo not drawn) [Compound 44], in that order: 23%, 67%, 97% and -5%.
For `COc1ccc(/C(C)=C/n2c3c(c4cc(C)ccc42)C2CCN(C3)C2)cc1` (stereo not drawn) [Compound 45], in that order: 26%, 98%, 80% and 4%.
